According to patent US20160207904A1, “CRYSTALLINE 2-HYDROXY-6-((2-(1-ISOPROPYL-1H-PYRAZOL-5-YL)PYRIDIN-3-YL)METHOXY)BENZALDEHYDE ANSOLVATE SALTS” (GLOBAL BLOOD THERAPEUTICS, INC., priority 2013, published 2016):

Columns and labels:
Format in all cases: physicochemical
[1] = Interconversion study (slurries of mixed forms in ethyl acetate or ethanol, XRPD); conditions: ambient condition, hydrochloride
Description: (§1) In an interconversion study, a mixture of all identified crystal forms turned into Form I after slurry experiments in ethyl acetate or ethanol. […] The XRPD patterns and microscopy images of the three crystal forms are shown in FIG. 6 and FIG. 7, respectively.
Interconversion Study: Interconversion experiments were carried out by making slurries containing the same amount of different forms solids in ethyl acetate or ethanol. The slurries were kept stirring for days at ambient condition. The insoluble solids were recovered by filtration and examined using XRPD.
Interconversion experiments were performed with the various crystalline forms. Samples of equal amount of Form I mixed with Form II in solvents (ethyl acetate or ethanol) were slurried at ambient condition with covering. The remaining solids were collected by filtration and examined by XRPD. […] Some observed differences in the —OH stretch region at 3500 cm−1 in FTIR were most likely due to the preferred orientation which may be caused by particle size and morphology difference.

[2] = Dynamic vapor sorption (DVS); conditions: at 80% RH, 25.0±1.0° C.
Description: Dynamic Vapor Sorption (DVS): Dynamic moisture adsorption and desorption was studied using IGA Sorp (Hidden Isochema Ltd.Warrington, UK). About 5 mg (3˜5 mg) of a prepared sample was placed in a sample basket and hung in the measuring chamber of an IGA Sorp. For an isotherm test, the chamber temperature is maintained by a water bath at constant 25.0±1.0° C. The sample was tested at a targeted RH range from 0% to 90% full cycle in step mode. The analysis is performed in 10% increment. Time duration at each RH was set as […] Solid State Characterizaton: Form I of Compound 1 hydrochloride was characterized by XRPD (FIG. 1), TGA (FIG. 2), DSC (FIG. 3), DVS (FIG. 4). […] The crystal form of the initial drug substance is assigned as Form I.

[3] = Heating to 80° C. by TGA, then XRPD; conditions: heated to 80° C. by TGA
Description: Powder X-RayDiffraction (XRPD): The solid samples were examined using X-ray diffractometer (Bruker D8 advance). The system is equipped with LynxEye detector. The samples were scanned from 3 to 40° 2θ, at a step size 0.02° 2θ. The tube voltage and current were 40 KV and 40 mA respectively. The sample was transferred from sample container onto zero background XRD holder and gently ground. TGA Analysis: TGA analysis was carried out on a TA Instruments TGA Q500. Samples was placed in a tarred platinum or aluminum pan, automatically weighed and inserted into the TGA furnace. The samples were heated at a rate of 10° C./min to final temperature of 300° C. The purge gas is nitrogen for balance at 40 ml/min and for the sample at 60 ml/min, respectively. Scale-up of Form II: 60 mg or 40 mg of Compound 1 hydrochloride was dissolved in 3 mL of ethanol or 1-butanol, respectively. Both solutions were filtered, filtrates were collected and then the two filtrates were combined in (1:1) volume ratio. The resulting solution was allowed to evaporate at ambient condition to dryness to yield Form II.

[4] = Physical stability of crystal forms at ambient conditions; conditions: converted into Form I or a mixture of Form I and its free base
Description: Methods: Three crystal forms of 2-hydroxy-6-((2-(1-isopropyl-1H-pyrazol-5-yl)pyridin-3-yl)methoxy)benzaldehyde hydrochloride with different XRPD patterns were identified in this study based on a matrix of crystallizations in various solvents, screened in 96-wells as described below. An initial drug substance was assigned as Form I. Form I was also obtained in numerous conditions during solvent crystallization in the 96-well screen and in slurry studies. Form II and Form III were also generated. Solids obtained were characterized by X-ray powder diffraction (XRPD), differential scanning calorimetry (DSC), thermogravimetry (TGA), polarizing microscope (PLM) and Fourier transform infrared spectrometer (FTIR).
as §1

Q: For CC(C)n1nccc1-c1ncccc1COc1cccc(O)c1C=O.Cl [Form I, 2-hydroxy-6-((2-(1-isopropyl-1H-pyrazol-5-yl)pyridin-3-yl)methoxy)benzaldehyde hydrochloride], which “outcome of interconversion (slurry) experiments / relative thermodynamic stability” value [1] is on record?
A: the most thermodynamically stable form

Q: What about the “water picked up (DVS profile)” value [2] of the same compound?
A: < 1%

Q: Which XRPD after heating [3] does the source give for CC(C)n1nccc1-c1ncccc1COc1cccc(O)c1C=O.Cl [Form II, 2-hydroxy-6-((2-(1-isopropyl-1H-pyrazol-5-yl)pyridin-3-yl)methoxy)benzaldehyde hydrochloride] here?
A: remained unchanged

Q: What about the “outcome of interconversion (slurry) experiments / relative thermodynamic stability” value [1] of the same compound?
A: transforms almost entirely to Form I crystals

Q: What about the “stability of crystal form at ambient conditions” value [4] of the same compound?
A: unstable at ambient conditions

Q: Which “stability of crystal form at ambient conditions” value [4] does the source give for CC(C)n1nccc1-c1ncccc1COc1cccc(O)c1C=O.Cl [Form III, 2-hydroxy-6-((2-(1-isopropyl-1H-pyrazol-5-yl)pyridin-3-yl)methoxy)benzaldehyde hydrochloride] here?
A: unstable at ambient conditions
